Results: ChEMBL document CHEMBL4840360, “Design, Synthesis, and Pharmacological Evaluation of Biaryl-Containing PD-1/PD-L1 Interaction Inhibitors Bearing a Unique Difluoromethyleneoxy Linkage” (J Med Chem, 2021)
Active and inactive are the calls of the source. No cut-off for these calls is given here.

How the values were obtained:
[1] = target: T1, Programmed cell death protein 1/Programmed cell death 1 ligand 1 (Homo sapiens, UniProt Q15116+Q9NZQ7); experiment: Inhibition of PD-1/PD-L1 interaction (unknown origin) by HTRF assay; format: protein-complex assay
[2] = AUClast in rat at 3 mg/kg, po; format: ADME, organism-based; design: time 0 - last, route oral, dose 3 mg/kg; conditions: in vivo
[3] = Half life in rat at 1 mg/kg, iv; format: ADME, organism-based; conditions: in vivo
[4] = Cmax in rat at 3 mg/kg, po; format: ADME, organism-based; design: route oral, dose 3 mg/kg; conditions: in vivo
[5] = target: T1, Programmed cell death protein 1/Programmed cell death 1 ligand 1; experiment: Inhibition of PD-1/PD-L1 interaction in human PBMCs cocultured with H1299 cells assessed as increase in INFgamma expression at 0.1 uM incubated for 72 hrs in presence of alphaCD3/alphaCD28 by ELISA; format: cell-based; conditions: PBMC
[6] = AUClast in rat at 1 mg/kg, iv; format: ADME, organism-based; design: time 0 - last, route intravenous, dose 1 mg/kg; conditions: in vivo
[7] = Observed clearance in rat at 1 mg/kg, iv; format: ADME, organism-based; conditions: in vivo
[8] = Observed volume of distribution at steady state in rat at 1 mg/kg, iv; format: ADME, organism-based; conditions: in vivo, read-out: Vdss
[9] = Tmax in rat at 3 mg/kg, po; format: ADME, organism-based; conditions: in vivo
[10] = target: T2, Programmed cell death protein 1/Programmed cell death 1 ligand 1 (Mus musculus) (UniProt Q9EP73+Q02242); experiment: Inhibition of PD1/PDL1 protein-protein interaction in mouse CD8-positive T cells cocultured with Hepa1-6 cells assessed as increase in ratio of IFNgamma+ GrzB+ CD8+ T cells at 0.75 to 3 uM incubated for 48 hrs in presence of alphaCD3/alphaCD28 and IL-2 stimulation by flow cytometry analysis; format: cell-based; conditions: dose 0.75-3 µM
[11] = Microsomal stability in mouse assessed as clearance; format: ADME; conditions: microsomes
[12] = test system: Hepa1-6; experiment: Antitumor activity against […] Hepa1-6 cells xenografted in C57BL/6 […] mouse model assessed as tumor growth inhibition at 1 mg/kg, IM administered every other day and measured three times per week; format: functional, organism-based
[13] = test system: Hepa1-6; experiment: Antitumor activity against […] Hepa1-6 cells xenografted in C57BL/6 mouse model assessed as increase in infiltration of IFNgamma+ GrzB+ CD8+ T-cells in tumor by flow cytometry analysis; format: functional, cell-based
[14] = Antitumor activity against […] Hepa1-6 cells xenografted in C57BL/6 mouse syngeneic model assessed as tumor growth inhibition at 1 mg/kg, IM administered every other day and measured three times per week; format: functional; conditions: Hepa1-6, im, read-out: TGI
[15] = target: T2, Programmed cell death protein 1/Programmed cell death 1 ligand 1 (Mus musculus); experiment: Inhibition of PD1/PDL1 protein-protein interaction in mouse CD8-positive T cells cocultured with Hepa1-6 cells assessed as increase in IFNgamma secretion incubated for 48 hrs in presence of alphaCD3/alphaCD28 and IL-2 stimulation by ELISA; format: cell-based; conditions: dose 0.75-3 µM
[16] = Microsomal stability in mouse assessed as half life; format: ADME; conditions: microsomes
[17] = test system: Hepa1-6; experiment: Antitumor activity against […] Hepa1-6 cells xenografted in C57BL/6 mouse model assessed as increase in infiltration of IFNgamma+ CD8+ T-cells in tumor by flow cytometry analysis; format: functional, cell-based
[18] = target: T2, Programmed cell death protein 1/Programmed cell death 1 ligand 1 (Mus musculus); experiment: Inhibition of PD1/PDL1 protein-protein interaction in mouse CD8-positive T cells cocultured with Hepa1-6 cells assessed as increase in CD107a expression in CD8+ T cells incubated for 5 hrs in presence of alphaCD3/alphaCD28 and IL-2 stimulation by flow cytometry analysis; format: cell-based; conditions: dose 0.75-3 µM
[19] = test system: Hepa1-6; experiment: Antitumor activity against […] Hepa1-6 cells xenografted in C57BL/6 mouse model assessed as increase in infiltration of GrzB+ CD8+ T-cells in tumor by flow cytometry analysis; format: functional, cell-based
[20] = target: T1, Programmed cell death protein 1/Programmed cell death 1 ligand 1; experiment: Inhibition of PD-1/PD-L1 interaction in human Jurkat T cells expressing PD-1 cocultured with CHO cells expressing PD-Ll/TCR assessed as activation of Jurkat cells by luciferase reporter gene assay; format: cell-based
[21] = target: T2, Programmed cell death protein 1/Programmed cell death 1 ligand 1 (Mus musculus); experiment: Inhibition of PD1/PDL1 protein-protein interaction in mouse CD8-positive T cells cocultured with Hepa1-6 cells assessed as increase in ratio of IFNgamma+ CD8+ T cells at 0.75 to 3 uM incubated for 48 hrs in presence of alphaCD3/alphaCD28 and IL-2 stimulation by flow cytometry analysis; format: cell-based; conditions: dose 0.75-3 µM
[22] = target: T2, Programmed cell death protein 1/Programmed cell death 1 ligand 1 (Mus musculus); experiment: Inhibition of PD1/PDL1 protein-protein interaction in mouse CD8-positive T cells cocultured with Hepa1-6 cells assessed as increase in ratio of GrzB+ CD8+ T cells at 0.75 to 3 uM incubated for 48 hrs in presence of alphaCD3/alphaCD28 and IL-2 stimulation by flow cytometry analysis; format: cell-based; conditions: dose 0.75-3 µM

T1 sequence (Q15116 whole entry): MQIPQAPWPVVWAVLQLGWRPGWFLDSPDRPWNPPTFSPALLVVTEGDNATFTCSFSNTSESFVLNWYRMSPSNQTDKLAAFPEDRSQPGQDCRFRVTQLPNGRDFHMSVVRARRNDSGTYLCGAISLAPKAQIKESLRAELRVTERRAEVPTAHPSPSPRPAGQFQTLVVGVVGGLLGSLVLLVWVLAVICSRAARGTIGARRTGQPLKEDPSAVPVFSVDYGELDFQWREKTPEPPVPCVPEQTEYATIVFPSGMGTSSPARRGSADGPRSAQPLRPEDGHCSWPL
T1 sequence (Q9NZQ7 whole entry): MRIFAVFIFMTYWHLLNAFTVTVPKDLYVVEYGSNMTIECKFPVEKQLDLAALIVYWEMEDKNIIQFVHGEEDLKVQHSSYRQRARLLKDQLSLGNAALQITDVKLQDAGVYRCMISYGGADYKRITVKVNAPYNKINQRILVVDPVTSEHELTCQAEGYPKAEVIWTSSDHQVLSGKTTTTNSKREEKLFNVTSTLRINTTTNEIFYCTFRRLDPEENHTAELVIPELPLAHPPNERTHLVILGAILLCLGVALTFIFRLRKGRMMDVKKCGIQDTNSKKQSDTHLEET

## Cc1cc(OC(F)(F)c2cccc(-c3ccc4c(c3)OCCO4)c2C)cc(OCc2cccc(C#N)c2)c1CN[C@H](CO)C(=O)O
[1]
  IC50: 31.9 nM

## Cc1c(-c2ccc3c(c2)OCCO3)cccc1C(F)(F)Oc1cc(OCc2cccc3nonc23)c(CNC(CO)(CO)CO)cc1Cl
[1]
  IC50: 7.05 nM

## Cc1c(-c2ccc3c(c2)OCCO3)cccc1C(F)(F)Oc1cc(OCc2ccnc(C#N)c2)c(CN2CCCC[C@H]2C(=O)O)cc1Cl
[2]
  AUC(0-t): 0.701 ng·h/mL
[3]
  half-life: 0.71 h
[4]
  Cmax: 0.698 ng/mL
[5]
  inhibition: Active
[1]
  IC50: 2.99 nM
[6]
  AUC(0-t): 117 ng·h/mL
[7]
  clearance: 143 mL/min/kg
[8]
  Vd: 5.31 L/kg
[9]
  Tmax: 2.83 h

## Cc1c(-c2ccc3c(c2)OCCO3)cccc1C(F)(F)Oc1cc(OCc2ccnc(C#N)c2)c(CN[C@@H](CO)[C@@H](O)[C@@H](O)[C@H](O)CO)cc1Cl
[3]
  half-life: 3.14 h
[5]
  inhibition: Active
[1]
  IC50: 7.1 nM
[6]
  AUC(0-t): 141 ng·h/mL
[7]
  clearance: 131 mL/min/kg
[8]
  Vd: 18 L/kg

## CC(=O)OCCOC(=O)[C@@H]1CCCCN1Cc1cc(Cl)c(OC(F)(F)c2cccc(-c3ccc4c(c3)OCCO4)c2C)cc1OCc1ccnc(C#N)c1
[1]
  IC50: > 1000 nM

## Cc1c(-c2ccc3c(c2)OCCO3)cccc1C(F)(F)Oc1cc(OCc2ccnc(C#N)c2)c(CN[C@@H]2C(O)O[C@H](CO)[C@@H](O)[C@@H]2O)cc1Cl (some centres not stated)
[10]
  inhibition: Active
[11]
  microsomal CLint: 46.1 µL/min/mg
[3]
  half-life: 4.84 h
[12]
  Activity: Active
[5]
  inhibition: Active
[13]
  Activity: Active
[14]
  inhibition in vivo at 1 mg/kg: 53.1%
[15]
  inhibition: Dose-Dependent Effect
[16]
  half-life: 1.25 h
[1]
  IC50: 10.2 nM
[6]
  AUC(0-t): 464 ng·h/mL
[7]
  clearance: 40 mL/min/kg
[17]
  Activity: Active
[18]
  inhibition: Dose-Dependent Effect
[19]
  Activity: Active
[20]
  IC50: 3160 nM
[8]
  Vd: 3.92 L/kg
[21]
  inhibition: Active
[22]
  inhibition: Active

## CC(=O)OCOC(=O)[C@@H]1CCCCN1Cc1cc(Cl)c(OC(F)(F)c2cccc(-c3ccc4c(c3)OCCO4)c2C)cc1OCc1ccnc(C#N)c1
[1]
  IC50: 28.8 nM

## Cc1cc(OC(F)(F)c2cccc(-c3ccc4c(c3)OCCO4)c2C)cc(OCc2cccc(C#N)c2)c1CNC(C)(CO)CO
[1]
  IC50: 16.3 nM

## Cc1cc(OC(F)(F)c2cccc(-c3ccc4c(c3)OCCO4)c2C)cc(OCc2cccc(C#N)c2)c1CN[C@@H](C(=O)O)[C@H](C)O
[1]
  IC50: 54.7 nM

## Cc1c(-c2ccc3c(c2)OCCO3)cccc1C(F)(F)Oc1cc(OCc2ccnc(C#N)c2)c(CN2CCCC[C@H]2C(=O)N[C@@H]2C(O)O[C@H](CO)[C@@H](O)[C@@H]2O)cc1Cl (some centres not stated)
[1]
  IC50: 28.8 nM

## Cc1c(-c2ccc3c(c2)OCCO3)cccc1C(F)(F)Oc1cc(OCc2ccnc(C#N)c2)c(CNC(CO)(CO)CO)cc1Cl
[1]
  IC50: 6.32 nM

## Cc1cc(OCc2cccc(-c3ccc4c(c3)OCCO4)c2C)cc(OCc2cccc(C#N)c2)c1CN[C@H](CO)C(=O)O
[11]
  microsomal CLint: 52.5 µL/min/mg
[3]
  half-life: 0.47 h
[16]
  half-life: 1.1 h
[1]
  IC50: 48.2 nM
[6]
  AUC(0-t): 142 ng·h/mL
[7]
  clearance: 124 mL/min/kg
[8]
  Vd: 1.33 L/kg

## Cc1c(-c2ccc3c(c2)OCCO3)cccc1C(F)(F)Oc1cc(OCc2cccc(C#N)c2)c(CNC(C)(CO)CO)cc1Cl
[1]
  IC50: 5.93 nM

## Cc1cc(OC(F)(F)c2cccc(-c3ccc4c(c3)OCCO4)c2C)cc(OCc2cccc(C#N)c2)c1CNC(CO)(CO)CO
[1]
  IC50: 30.5 nM

## CON(C)C(=O)[C@@H]1CCCCN1Cc1cc(Cl)c(OC(F)(F)c2cccc(-c3ccc4c(c3)OCCO4)c2C)cc1OCc1ccnc(C#N)c1
[1]
  IC50: > 1000 nM

## Cc1c(-c2ccc3c(c2)OCCO3)cccc1C(F)(F)Oc1cc(OCc2cncc(C#N)c2)c(CNC(CO)(CO)CO)cc1Cl
[2]
  AUC(0-t): 2.83 ng·h/mL
[3]
  half-life: 1.32 h
[4]
  Cmax: 4.82 ng/mL
[5]
  inhibition: Active
[1]
  IC50: 5.68 nM
[6]
  AUC(0-t): 188 ng·h/mL
[7]
  clearance: 89 mL/min/kg
[8]
  Vd: 4.18 L/kg
[9]
  Tmax: 0.33 h

## Cc1c(-c2ccc3c(c2)OCCO3)cccc1C(F)(F)Oc1cc(OCc2ccnc(C#N)c2)c(CN2CCCC[C@H]2C(=O)OCC(F)(F)F)cc1Cl
[1]
  IC50: > 1000 nM
